{"source": "patent US10689352B2", "about": "“Solid state forms of trisodium valsartan: sacubitril” (Teva Pharmaceuticals International GMBH, priority 2015, dated 2020)", "key": {"[1]": {"experiment": "Storage stability (chemical and polymorphic)", "format": "physicochemical", "from_the_text": "A crystalline form according to Paragraph 2, which is characterized by an X-ray powder diffraction pattern having peaks at 5.8, 7.3, 12.9, 15.9, 16.5 and 18.6 degrees two theta±0.2 degrees two theta and also having any one, any two, any three or more additional peaks selected from: 4.3, 9.4, 10.0, 10.9 and 14.7 two theta±0.2 degrees two theta. • 4. A crystalline form according to Paragraph 2, which is characterized by the X-ray powder diffraction pattern having peaks at 7.3, 16.5, 9.4, 10.9 and 14.7 two theta±0.2 degrees two theta and also having any one, any two, any three or more additional peaks selected from: 4.3, 5.8, 10.0, 12.9, 15.9 and 18.6 two theta±0.2 degrees two theta and optionally further characterized by an FTIP spectrum as depicted in FIG. 6. • 5. A crystalline form according to Paragraph 1 or Paragraph 2, which is characterized by the X-ray powder diffraction pattern having peaks at 4.3, 5.8, 7.3, 9.4, 10.0, 10.9, 12.9, 14.7, 15.9, 16.5, and 18.6 two theta±0.2 degrees two theta±0.2 degrees two theta. • 6. A crystalline form according to Paragraph 5, which is further characterized by X-ray powder diffraction d-spacings at: 20.341, 15.261, 12.068, 9.397, 8.826, 8.092, 6.863, 6.024, 5.583, 5.353 and 4.773 Å±0.1 Å. • 7. A crystalline form according to any of Paragraphs 1, 2, 3 or 4, further characterized by an X-ray powder diffraction pattern having one, two, three, four five, or more than 5 additional peaks selected from: 4.3, 5.0, 5.5, 5.8, 7.3, 8.5, 8.9, 9.4, 10.0, 10.9, 11.6, 12.9, 13.7, 13.9, 14.7, 14.8, 15.1, 15.3, 15.9, 16.5, 17.3, 17.6, 18.6, 19.1, 19.5, 20.3, 21.2, 21.9 and 23.1 degrees two theta±0.2 degrees two theta. • 8. A crystalline form according to any of Paragraphs 1, 2, 3, 4, 5, 6 or 7, which is characterized by an X-ray powder diffraction pattern having peaks at: 4.3, 5.0, 5.5, 5.8, 7.3, 8.5, 8.9, 9.4, 10.0, 10.9, 11.6, 12.9, 13.7, 13.9, 14.7, 14.8, 15.1, 15.3, 15.9, 16.5, 17.3, 17.6, 18.6, 19.1, 19.5, 20.3, 21.2, 21.9 and 23.1 degrees two theta±0.2 degrees two theta. • 9. A crystalline form according to Paragraph 8, which is further characterized by the absence of any peak (defined as relative intensity I/Io of less than 1%) between any of two neighboring peaks. • 10. A crystalline form according to any of Paragraphs 1, 2, 3, 4, 5, 6, 7, 8 or 9, further characterized by an X-ray powder diffraction pattern as depicted in FIG. 1 or FIG. 14 and/or a solid state ^13C NMR as depicted in FIG. 5. • 11. A crystalline form according to any of Paragraphs 1, 2, 3, 4, 5, 6, 7, 8, 9 or 10, further characterized by a DSC as depicted in FIG. 2. • 12. A crystalline form according to any of Paragraphs 2-11 further characterized by a solid state ^13C NMR spectrum having peaks at 176.8, 161.9, 141.1, 139.5, 138.6, 137.2, 129.3, 128.7, 126.3, 124.9, 64.2, 60.6, 47.5, 46.1, 40.1, 39.0, 38.1, 34.3, 32.7, 29.8, 28.2, 22.4, 20.2, 17.8, 16.5, 13.7, 11.7 ppm±0.2 ppm. • 13. […] A crystalline form according to any of Paragraphs 1, 2, 3, 4, 5, 6, 7, 8, 9, 10, 11, 12, 13, 14 or 15, which is a hydrate, preferably wherein the crystalline form contains from 5.2 to 5.7 wt % water. • 17. A crystalline form according to any of Paragraphs 1, 2, 3, 4, 5, 6, 7, 8, 9, 10, 11, 12, 13, 14, 15 or 16, comprising agglomerates having spherical morphology, preferably wherein: at least 50%, at least 60%, at least 70%, at least 80% or at least 90% of the agglomerates have spherical morphology, preferably wherein the circularity of at least 50% (preferably: at least 60%, at least 70%, at least 80% or at least 90%) of the particles on a volume basis is: greater than or equal to about 0.85, about 0.86 to 1, about 0.88 to about 0.98, about 0.90 to about 0.96, about 0.92 to about 0.96. • 18. […] A process according to any of Paragraphs 18 or 19, wherein the solution in step (i) is prepared by heating, preferably to a temperature of about 80° C. to about 150° C., about 90° C. to about 130° C. • 21. […]"}, "[2]": {"experiment": "Circularity (morphology) by image analysis, Morphologi G3", "format": "physicochemical", "conditions": "agglomerates, sieved through 300 μm, volume basis; e.g. as prepared according to Example 19", "from_the_text": "As used herein, circularity refers to the ratio of the perimeter of a circle with the same area as the particle divided by the perimeter of the actual particle image. Circularity is preferably determined by measurement of the particles following sieving through a sieve having a pore size of 300 μm. The particles are preferably measured following analysis of photographs of the particles at an appropriate magnification (e.g. 2.5 to 5.0 times magnification). More particularly, the sample is analyzed using Morphologi G3 instrumentation. The collected data can be processed using image analysis. Circularity is a ratio of the perimeter of a circle with the same area as the particle divided by the perimeter of the actual particle image.\nSample was sieved through a sieve with pore size 300 μm. The sieved material was dispersed on the glass surface at 0.5 bar and then images were taken at 2.5-5.0× magnification using Morphologi G3 (Malvern). Collected data was processed using image analysis. Circularity is a ratio of the perimeter of a circle with the same area as the particle divided by the perimeter of the actual particle image."}, "[3]": {"conditions": "characterized according to Carr RL, Chem Eng 1965", "description": "Whole amount material was put in graduated cylinder. A graduated cylinder with the sample was attached to Erweka SVM tapped density tester and tapped with 1250 strikes. Volume of the powder is measured. Bulk density is measured as ratio between mass of sample (ms) and unsettled apparent volume (V0) of sample in graduated cylinder. Tap Density is measured as ratio between mass of sample (ms) and final tapped volume of sample (Vf). Compressibility index and Hausner ratio were calculated according to obtained results of bulk and tapped density."}}}
{"substance": "trisodium valsartan:sacubitril [Form II]", "values": [{"measurement": "chemical and polymorphic stability", "setting": "[1]; protected from moisture, stored at 25° C./60% RH", "result": "chemically and polymorphically stable"}, {"measurement": "chemical and polymorphic stability", "setting": "[1]; protected from moisture, stored at 40° C./75% RH", "result": "chemically and polymorphically stable"}, {"measurement": "chemical and polymorphic stability", "setting": "[1]; protected from moisture, stored at 50° C.", "result": "chemically and polymorphically stable"}, {"measurement": "chemical and polymorphic stability", "setting": "[1]; protected from moisture, stored at 50° C./80% RH", "result": "chemically and polymorphically stable"}, {"measurement": "chemical and polymorphic stability", "setting": "[1]; stored for 8 weeks at 25° C./60% RH", "result": "chemically and polymorphically stable"}, {"measurement": "chemical and polymorphic stability", "setting": "[1]; stored for 8 weeks at 50° C.", "result": "chemically and polymorphically stable"}, {"measurement": "circularity (v0.5)", "setting": "[2]", "result": "greater than 0.85"}, {"measurement": "flow properties", "setting": "[3]", "result": "good-excellent"}]}
